Measurements reported in ChEMBL document CHEMBL1151605, “2-Heterocyclic indole-3-sulfones as inhibitors of HIV-1 reverse transcriptase” (Bioorg Med Chem Lett, 1995).

Tests used:
[1] = target: Human immunodeficiency virus type 1 reverse transcriptase (Human immunodeficiency virus 1, UniProt Q72547, K103N); assay: Inhibitory activity against K103N mutant of HIV-1 reverse transcriptase
MT4 = assay: Antiviral activity in cell culture tested ex vivo in MT-4 cells using the IIIb strain of HIV-1; type: functional; conditions: Homo sapiens, read-out: CIC95
[2] = target: Human immunodeficiency virus type 1 reverse transcriptase (Human immunodeficiency virus 1, UniProt Q72547, K103N/Y181C); assay: Inhibitory activity against K103N/Y181C double mutant of HIV-1 reverse transcriptase

SMILES | IC50 [1] | IC95 (MT4) | IC50 [2]
O=S(=O)(c1ccccc1)c1c(C2=NCCS2)[nH]c2ccc(Cl)cc12 | 1250 nM | – | –
CCCc1[nH]c(-c2[nH]c3ccc(Cl)cc3c2S(=O)(=O)c2ccccc2)nc1C | – | 50 nM | –
O=S(=O)(c1ccccc1)c1c(-c2nc3c([nH]2)CCCC3)[nH]c2ccc(Cl)cc12 | – | 50 nM | –
O=S(=O)(c1ccccc1)c1c(-c2ncc[nH]2)[nH]c2ccc(Cl)cc12 | – | 2 nM | –
Cc1nc(-c2[nH]c3ccc(Cl)cc3c2S(=O)(=O)c2ccccc2)[nH]c1C | 22 nM | 12 nM | > 30000 nM
Cc1cnc(-c2[nH]c3ccc(Cl)cc3c2S(=O)(=O)c2ccccc2)[nH]1 | – | 12 nM | –
CCc1nc(-c2[nH]c3ccc(Cl)cc3c2S(=O)(=O)c2ccccc2)[nH]c1CC | – | 50 nM | –
Nc1nc(-c2[nH]c3ccc(Cl)cc3c2S(=O)(=O)c2ccccc2)cs1 | – | > 200 nM | –
